Values quoted from earlier work, collected in US6699871B2, “Beta-amino heterocyclic dipeptidyl peptidase inhibitors for the treatment or prevention of diabetes” (Merck & Co., Inc., priority 2001, dated 2004).

Assays:
DP-IV = molecular target: T1, DP-IV (Homo sapiens, UniProt P27487)
T1 construct: GRF is rapidly degraded in plasma to GRF[3-44]

hematopoiesis = conditions: mouse, cyclophosphamide-induced neutropenia

T1 sequence (P27487 whole entry): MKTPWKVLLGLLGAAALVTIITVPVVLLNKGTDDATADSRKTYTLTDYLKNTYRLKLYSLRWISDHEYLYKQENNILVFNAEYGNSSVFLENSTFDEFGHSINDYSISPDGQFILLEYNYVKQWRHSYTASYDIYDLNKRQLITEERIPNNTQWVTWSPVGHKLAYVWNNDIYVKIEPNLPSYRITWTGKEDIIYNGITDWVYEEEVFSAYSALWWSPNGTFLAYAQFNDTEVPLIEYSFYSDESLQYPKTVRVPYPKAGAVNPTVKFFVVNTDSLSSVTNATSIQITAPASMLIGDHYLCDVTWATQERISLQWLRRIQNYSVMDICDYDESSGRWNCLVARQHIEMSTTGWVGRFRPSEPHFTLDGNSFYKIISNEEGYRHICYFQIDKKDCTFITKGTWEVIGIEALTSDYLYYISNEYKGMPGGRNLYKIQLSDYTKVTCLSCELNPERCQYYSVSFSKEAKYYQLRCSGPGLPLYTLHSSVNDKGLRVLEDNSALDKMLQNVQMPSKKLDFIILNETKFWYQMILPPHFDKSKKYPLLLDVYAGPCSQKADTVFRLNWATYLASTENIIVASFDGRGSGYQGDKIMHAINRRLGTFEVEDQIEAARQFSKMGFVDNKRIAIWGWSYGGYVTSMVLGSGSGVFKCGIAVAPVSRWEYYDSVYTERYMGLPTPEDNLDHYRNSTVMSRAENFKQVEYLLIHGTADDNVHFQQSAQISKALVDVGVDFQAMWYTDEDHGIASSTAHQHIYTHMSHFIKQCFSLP

Which “degradation of GRF in plasma to GRF[3-44]” value (DP-IV) does the source give for CC[C@H](C)[C@H](N)C(=O)N1CCC[C@H]1C(=O)N[C@H](C(=O)O)[C@@H](C)CC [diprotin A] here?
Its value is “prevented”.

Which effect on hematopoiesis (hematopoiesis) does the source give for CC(C)[C@H](N)C(=O)N1CCC[C@H]1B(O)O [Val-Boro-Pro] here?
Its effect on hematopoiesis is “stimulated hematopoiesis”.
